Values joined by “and” are separate entries in the source; they are usually repeats but may differ in a detail not shown here. Equal values may be shown once.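 Growth conditions: 96-well plates. Treatment: test compound, 48 hours, 5 concentrations. Analysis: linear interpolation between bracketing concentrations; unreached endpoints set to highest concentration. GI50 is the concentration that inhibits growth by half. At the TGI there is no net growth.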
What was measured:
Experiment in all cases: NCI tumour cell line growth inhibition, 48 h
[1] = system: 786-0 renal
[2] = system: A549 NSCLC
[3] = system: ACHN renal
[4] = system: BT-549 breast
[5] = system: CAKI-1 renal
[6] = system: CCRF-CEM leukemia
[7] = system: COLO 205 colon
[8] = system: DU-145 prostate
[9] = system: EKVX NSCLC
[10] = system: HCT-116 colon
[11] = system: HCT-15 colon
[12] = system: HL-60(TB) leukemia
[13] = system: HOP-92 NSCLC
[14] = system: HS 578T breast
[15] = system: HT29 colon
[16] = system: IGROV1 ovarian
[17] = system: KM12 colon
[18] = system: M14 melanoma
[19] = system: MALME-3M melanoma
[20] = system: MCF7 breast
[21] = system: MDA-MB-231 breast
[22] = system: MDA-MB-435
[23] = system: MDA-N
[24] = system: NCI-H226 lung
[25] = system: NCI-H23 lung
[26] = system: NCI-H460 lung
[27] = system: NCI-H522 lung
[28] = system: NCI/ADR-RES ovarian
[29] = system: OVCAR-5 ovarian
[30] = system: OVCAR-8 ovarian
[31] = system: PC-3 prostate
[32] = system: RPMI-8226 leukemia
[33] = system: RXF 393 renal
[34] = system: SF-268 CNS
[35] = system: SF-295 CNS
[36] = system: SF-539 CNS
[37] = system: SK-MEL-2 melanoma
[38] = system: SK-MEL-5 melanoma
[39] = system: SK-OV-3 ovarian
[40] = system: SN12C renal
[41] = system: SNB-19 CNS
[42] = system: SNB-75 CNS
[43] = system: SW-620 colon
[44] = system: T-47D breast
[45] = system: TK-10 renal
[46] = system: U251 CNS
[47] = system: UACC-257 melanoma
[48] = system: UACC-62 melanoma
[49] = system: UO-31 renal
[50] = system: A498 renal
[51] = system: HCC-2998 colon
[52] = system: HOP-62 NSCLC
[53] = system: LOX IMVI melanoma
[54] = system: MOLT-4 leukemia
[55] = system: OVCAR-3 ovarian
[56] = system: OVCAR-4 ovarian
[57] = system: SK-MEL-28 melanoma

Question: What does the source list for `Nc1cccc2nnccc12`?
Answer: TGI [1]: > 100000 nM; TGI [2]: > 100000 nM; TGI [3]: > 100000 nM; TGI [4]: > 100000 nM; TGI [5]: > 100000 nM; TGI [6]: > 100000 nM; TGI [7]: > 100000 nM; TGI [8]: > 100000 nM; TGI [9]: > 100000 nM; TGI [10]: > 100000 nM; TGI [11]: > 100000 nM; TGI [12]: > 100000 nM; TGI [13]: > 100000 nM; TGI [14]: > 100000 nM; TGI [15]: > 100000 nM; TGI [16]: > 100000 nM; TGI [17]: > 100000 nM; TGI [18]: > 100000 nM; TGI [19]: > 100000 nM; TGI [20]: > 100000 nM; TGI [21]: > 100000 nM; TGI [22]: > 100000 nM; TGI [23]: > 100000 nM; TGI [24]: > 100000 nM; TGI [25]: > 100000 nM; TGI [26]: > 100000 nM; TGI [27]: > 100000 nM; TGI [28]: > 100000 nM; TGI [29]: > 100000 nM; TGI [30]: > 100000 nM; TGI [31]: > 100000 nM; TGI [32]: > 100000 nM; TGI [33]: > 100000 nM; TGI [34]: > 100000 nM; TGI [35]: > 100000 nM; TGI [36]: > 100000 nM; TGI [37]: > 100000 nM; TGI [38]: > 100000 nM; TGI [39]: > 100000 nM; TGI [40]: > 100000 nM; TGI [41]: > 100000 nM; TGI [42]: > 100000 nM; TGI [43]: > 100000 nM; TGI [44]: > 100000 nM; TGI [45]: > 100000 nM; TGI [46]: > 100000 nM; TGI [47]: > 100000 nM; TGI [48]: > 100000 nM; TGI [49]: > 100000 nM

Question: `COc1cccc2c1C(=O)c1c(O)c3c(c(O)c1C2=O)C[C@@](O)(C(=O)CO)C[C@@H]3OC1CC2C(OCN3CN2COC2C(C)OC(O[C@H]4C[C@](O)(C(=O)CO)Cc5c(O)c6c(c(O)c54)C(=O)c4c(OC)cccc4C6=O)CC23)C(C)O1` (some centres not stated) was tested. Which GI50 [1] did it give?
Answer: The GI50 was 7.92 nM.

Question: What about the GI50 [50] of the same compound?
Answer: The GI50 was 3.82 nM.

Question: What about the GI50 [2] of the same compound?
Answer: The GI50 was 12.8 nM.

Question: And the TGI [2]?
Answer: Its TGI is 4630 nM.

Question: What about the GI50 [3] of the same compound?
Answer: Its GI50 is 8.2 nM.

Question: And the TGI [3]?
Answer: Its TGI is 673 nM.

Question: And the GI50 [4]?
Answer: The GI50 was 117 nM and 26.2 nM.

Question: And the TGI [4]?
Answer: The TGI was 734 nM and 1320 nM and 210 nM.

Question: And the GI50 [5]?
Answer: The GI50 was 17.5 nM.

Question: What about the GI50 [6] of the same compound?
Answer: Its GI50 is 3.01 nM.

Question: What about the GI50 [7] of the same compound?
Answer: The GI50 was 12.7 nM.

Question: What about the TGI [7] of the same compound?
Answer: Its TGI is 473 nM and 312 nM.

Question: And the GI50 [8]?
Answer: The GI50 was 11.9 nM.

Question: What about the GI50 [9] of the same compound?
Answer: Its GI50 is 85.5 nM and 19.9 nM.

Question: What about the TGI [9] of the same compound?
Answer: The TGI was 616 nM and 72 nM.

Question: What about the GI50 [51] of the same compound?
Answer: Its GI50 is 75 nM and 23.9 nM.

Question: What about the TGI [51] of the same compound?
Answer: Its TGI is 277 nM and 500 nM and 104 nM.

Question: And the GI50 [10]?
Answer: The GI50 was 16.6 nM.

Question: And the TGI [10]?
Answer: Its TGI is 537 nM and 85.6 nM.

Question: And the GI50 [11]?
Answer: The GI50 was 118 nM and 51.7 nM.

Question: What about the GI50 [12] of the same compound?
Answer: Its GI50 is 2.67 nM.

Question: What about the GI50 [52] of the same compound?
Answer: The GI50 was 21.8 nM.

Question: What about the TGI [52] of the same compound?
Answer: Its TGI is 419 nM and 2770 nM and 1230 nM.

Question: What about the GI50 [13] of the same compound?
Answer: Its GI50 is 15.3 nM and 15.9 nM.

Question: And the TGI [13]?
Answer: Its TGI is 381 nM and 263 nM and 506 nM.

Question: What about the GI50 [14] of the same compound?
Answer: The GI50 was 32.1 nM.

Question: What about the GI50 [15] of the same compound?
Answer: The GI50 was 19.9 nM.

Question: And the TGI [15]?
Answer: Its TGI is 148 nM.

Question: And the GI50 [16]?
Answer: The GI50 was 17.6 nM.

Question: What about the GI50 [17] of the same compound?
Answer: The GI50 was 46 nM and 17.9 nM.

Question: What about the TGI [17] of the same compound?
Answer: Its TGI is 2640 nM and 294 nM.

Question: What about the TGI [53] of the same compound?
Answer: The TGI was 204 nM and 28.7 nM.

Question: And the GI50 [18]?
Answer: The GI50 was 50.5 nM.

Question: What about the TGI [18] of the same compound?
Answer: The TGI was 332 nM and 381 nM.

Question: What about the GI50 [19] of the same compound?
Answer: The GI50 was 15.9 nM.

Question: What about the TGI [19] of the same compound?
Answer: The TGI was 197 nM and 80.9 nM.

Question: What about the GI50 [21] of the same compound?
Answer: The GI50 was 48.2 nM.

Question: And the TGI [21]?
Answer: The TGI was 705 nM and 893 nM.

Question: What about the GI50 [22] of the same compound?
Answer: Its GI50 is 64.9 nM and 26.7 nM.

Question: What about the TGI [22] of the same compound?
Answer: Its TGI is 374 nM and 352 nM and 133 nM.

Question: What about the GI50 [23] of the same compound?
Answer: Its GI50 is 52.2 nM and 21 nM.

Question: And the TGI [23]?
Answer: Its TGI is 229 nM and 272 nM and 131 nM.

Question: What about the TGI [54] of the same compound?
Answer: Its TGI is 6.58 nM.

Question: And the GI50 [24]?
Answer: The GI50 was 35.7 nM and 10.2 nM.

Question: What about the GI50 [25] of the same compound?
Answer: Its GI50 is 11.6 nM.

Question: And the TGI [25]?
Answer: The TGI was 209 nM and 108 nM and 21.7 nM.

Question: What about the GI50 [27] of the same compound?
Answer: Its GI50 is 6.8 nM.

Question: And the TGI [27]?
Answer: The TGI was 160 nM and 53.8 nM.

Question: What about the GI50 [28] of the same compound?
Answer: The GI50 was 325 nM and 58.6 nM.

Question: And the TGI [28]?
Answer: The TGI was 25000 nM and 8210 nM.

Question: And the GI50 [55]?
Answer: The GI50 was 46.7 nM and 15.4 nM.

Question: And the GI50 [56]?
Answer: Its GI50 is 104 nM.

Question: What about the TGI [56] of the same compound?
Answer: Its TGI is 5220 nM.

Question: And the GI50 [29]?
Answer: The GI50 was 88.6 nM and 20.2 nM.

Question: And the GI50 [30]?
Answer: The GI50 was 17.6 nM.

Question: What about the TGI [30] of the same compound?
Answer: The TGI was 4220 nM and 1270 nM.

Question: And the GI50 [31]?
Answer: The GI50 was 50.1 nM.

Question: And the TGI [31]?
Answer: The TGI was 935 nM and 890 nM.

Question: And the GI50 [32]?
Answer: Its GI50 is 4.87 nM.

Question: And the TGI [32]?
Answer: The TGI was 11.6 nM.

Question: And the GI50 [33]?
Answer: Its GI50 is 14.8 nM.

Question: And the TGI [33]?
Answer: Its TGI is 64.1 nM and 148 nM.

Question: What about the GI50 [34] of the same compound?
Answer: Its GI50 is 6.35 nM and 12.2 nM.

Question: What about the GI50 [35] of the same compound?
Answer: The GI50 was 31.2 nM.

Question: And the TGI [35]?
Answer: Its TGI is 3450 nM and 1350 nM.

Question: What about the GI50 [36] of the same compound?
Answer: The GI50 was 5.53 nM.

Question: What about the GI50 [37] of the same compound?
Answer: Its GI50 is 23 nM.

Question: What about the TGI [37] of the same compound?
Answer: Its TGI is 112 nM and 67 nM.

Question: What about the GI50 [57] of the same compound?
Answer: Its GI50 is 49.3 nM.

Question: And the TGI [57]?
Answer: Its TGI is 574 nM and 294 nM.

Question: And the GI50 [38]?
Answer: The GI50 was 44.7 nM.

Question: And the TGI [38]?
Answer: Its TGI is 236 nM and 263 nM.

Question: What about the GI50 [39] of the same compound?
Answer: The GI50 was 131 nM and 42.9 nM.

Question: And the TGI [39]?
Answer: Its TGI is 25000 nM and 4710 nM.

Question: What about the GI50 [40] of the same compound?
Answer: The GI50 was 12.1 nM.

Question: What about the TGI [40] of the same compound?
Answer: Its TGI is 96.6 nM and 134 nM and 35.9 nM.

Question: And the GI50 [41]?
Answer: Its GI50 is 15.2 nM.

Question: And the TGI [41]?
Answer: The TGI was 3200 nM.

Question: And the GI50 [42]?
Answer: The GI50 was 7.56 nM.

Question: What about the TGI [42] of the same compound?
Answer: The TGI was 66.3 nM and 34.2 nM.

Question: What about the GI50 [43] of the same compound?
Answer: Its GI50 is 10.4 nM.

Question: And the GI50 [44]?
Answer: The GI50 was 69.7 nM.

Question: What about the GI50 [45] of the same compound?
Answer: Its GI50 is 232 nM.

Question: And the GI50 [46]?
Answer: The GI50 was 7.72 nM.

Question: And the TGI [46]?
Answer: The TGI was 710 nM and 2600 nM.

Question: What about the GI50 [47] of the same compound?
Answer: Its GI50 is 24.4 nM.

Question: What about the TGI [47] of the same compound?
Answer: The TGI was 198 nM and 381 nM and 136 nM.

Question: And the GI50 [48]?
Answer: The GI50 was 5.01 nM.
